Results: BindingDB's records for doi:10.1016/j.bioorg.2016.03.011 (Beni-Suef University, 2016)

Target: Epidermal growth factor receptor (Homo sapiens, UniProt P00533)
Assay: Kinase-Glo Plus Luminescence Kinase Assay
Procedure: Kinase activity was determined using Kinase-Glo Plus luminescence kinase assay kit according to the manufacturer instructions. The assays depend on the quantitation of the amount of ATP remaining in the solution of kinase reaction.

Chain of Epidermal growth factor receptor (P00533 whole entry): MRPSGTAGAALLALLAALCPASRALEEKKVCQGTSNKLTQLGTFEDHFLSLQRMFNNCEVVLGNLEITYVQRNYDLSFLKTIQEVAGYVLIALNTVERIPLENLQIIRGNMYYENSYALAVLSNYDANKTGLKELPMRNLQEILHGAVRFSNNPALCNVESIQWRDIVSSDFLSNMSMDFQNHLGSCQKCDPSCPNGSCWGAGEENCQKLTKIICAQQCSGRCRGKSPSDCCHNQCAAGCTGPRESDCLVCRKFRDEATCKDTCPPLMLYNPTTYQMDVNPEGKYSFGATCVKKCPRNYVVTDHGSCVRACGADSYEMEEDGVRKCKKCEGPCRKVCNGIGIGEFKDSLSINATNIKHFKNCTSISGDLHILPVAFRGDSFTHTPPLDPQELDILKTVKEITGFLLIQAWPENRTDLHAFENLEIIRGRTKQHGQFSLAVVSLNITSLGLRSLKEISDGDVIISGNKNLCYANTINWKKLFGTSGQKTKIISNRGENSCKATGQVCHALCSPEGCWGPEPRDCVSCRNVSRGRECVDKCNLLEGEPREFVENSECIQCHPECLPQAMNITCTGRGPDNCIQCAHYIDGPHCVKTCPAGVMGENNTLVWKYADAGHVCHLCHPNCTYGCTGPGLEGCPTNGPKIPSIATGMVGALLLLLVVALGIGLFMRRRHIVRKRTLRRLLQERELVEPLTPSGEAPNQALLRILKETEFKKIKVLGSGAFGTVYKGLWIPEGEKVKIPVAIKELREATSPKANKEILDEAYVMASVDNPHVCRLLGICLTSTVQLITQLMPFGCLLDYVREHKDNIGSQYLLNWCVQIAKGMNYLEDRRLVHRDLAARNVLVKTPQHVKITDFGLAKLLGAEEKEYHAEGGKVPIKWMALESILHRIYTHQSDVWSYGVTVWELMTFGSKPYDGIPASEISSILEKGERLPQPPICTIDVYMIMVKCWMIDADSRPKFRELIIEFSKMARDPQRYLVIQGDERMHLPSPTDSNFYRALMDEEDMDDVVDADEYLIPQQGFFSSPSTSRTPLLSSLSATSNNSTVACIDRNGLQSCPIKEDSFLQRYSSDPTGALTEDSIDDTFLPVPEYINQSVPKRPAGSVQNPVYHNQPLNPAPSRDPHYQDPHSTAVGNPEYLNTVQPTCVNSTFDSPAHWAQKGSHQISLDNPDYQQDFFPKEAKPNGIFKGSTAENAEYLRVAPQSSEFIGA

IC50 [µM] | SMILES
35.9 | Cc1cc(OCC(=O)N/N=C/c2ccc(C(F)(F)F)cc2)c2c(C)nn(-c3ccccc3)c2n1 [N-(4-Trifluoromethylbenzylidene)-2-(3,6-dimethyl-1-phenyl-1H-pyrazolo[3,4-d]pyrimidin-4-yloxy)acetohydrazide (12f)]
30 | Cc1cc(OCC(=O)N/N=C/c2ccc(F)cc2)c2c(C)nn(-c3ccccc3)c2n1 [N-(4-fluorobenzylidene)-2-(3,6-dimethyl-1-phenyl-1H-pyrazolo[3,4-d]pyrimidin-4-yloxy)acetohydrazide (12b)]
